# Tests used:
# in vitro = format: cell-based; conditions: human
# Description: HeLa cells were plated in 96-well microtiter plates in 100 μl culture medium (4×10^4/well). After 20 hours, the cells were exposed to the test compounds at different dilutions and incubated for the next 8 h at 37° C. in a 5% CO2 humidified atmosphere. After 6 h incubation, the Alamar Blue was added in an amount equal to 10% of the culture volume (10 μl). Two hours after the addition of the Alamar Blue, the fluorescence was measured using a Victor 1420 microplate reader.
# The LC50/μM is the concentration at which the tested compound killed half the cells in this assay.
# Sendai virus = experiment: Replication of Sendai virus in 37RC cells (HAU titration of virus yield); format: cell-based; conditions: Respirovirus muris, Sendai virus yield at 24 hours after infection, read-out: ID50 (50% inhibitory dose/concentration)
# 37RC cells = experiment: Neutral Red cell viability assay; format: cell-based, monkey; conditions: uninfected 37RC cells, 24 h
# Description: Cell viability was determined using the Neutral Red assay. 37RC cells were seeded at density of 6×10^4 cells/well in 24-well plates and incubated for 24 h. Confluent 37RC monolayers were treated with the test compounds at different dilutions for 24 h at 37° C. After incubation, the medium was removed and the cells were incubated with RPM1 medium containing 40 μg/ml Neutral Red dye (500 μl/well). After 2 h at 37° C., the monolayers were washed with phosphate-buffered saline (PBS) and then with a solution containing 1% CaCl2 and 0.5% formaldehyde. After washing, a solution containing 1% acetic acid/50% ethanol was added to the monolayers (250 μl/well). After 10 min at room temperature, the absorbance was determined with a microplate reader (Victor 1420, Wallac) at 540 nm.
# HSF = experiment: hsp70 promoter luciferase reporter assay in HeLa cell clone 13B (HSF activation); format: cell-based, human; conditions: HeLa clone 13B, 8 h treatment
# Description: (§1) Method: HeLa cell clone 13B, stably transfected with a luciferase reporter plasmid controlled by the human hsp70 promoter, and HeLa κB-transformed cells, stably transfected with a luciferase reporter plasmid controlled by a synthetic NF-κB-STM construct, were maintained in DMEM medium supplemented with 10% FBS, L-glutamine (2 mM) and G418 (250 μg/ml) at 37° C. in a 5% CO2 humidified atmosphere.
# (§2) Cells were seeded at a density of 4×10^4 cells/well in 96-well plates. After 18-20 h, the medium was removed and cells were treated for 8 h with the test compounds (100 μl) at the appropriate dilutions in serum-free medium. For the NF-κB-dependent reporter gene assay, cells were stimulated with TPA (25 ng/ml) 2h after exposure to the compounds.
# (§3) After incubation, the medium was removed and cells were lysed in 10 μl of lysis buffer. The luciferase activity was determined by adding 100 μl of substrate and measuring the release of light using a Victor 1420 microplate reader (Wallac, Finland).
# The AC200/μM for HSF is the concentration at which the tested compound doubled the HSF activity in this assay. The IC50/μM for NF-κB is the concentration at which the tested compound halved the NF-κB activity in this assay.
# NF-κB [1] = experiment: NF-κB-dependent luciferase reporter gene assay in HeLa κB-transformed cells, TPA stimulated; format: cell-based; conditions: Homo sapiens; HeLa NF-κB-STM luciferase, 8 h treatment, TPA 25 ng/ml 2 h after exposure; read-out: NF-κB; IC50 (concentration at which the tested compound halved the NF-κB activity)
# Description: as §1, §2, §3
# The fragment Kpn I-BamH I from the pGL3 basic vector containing the luciferase gene (PROMEGA) was inserted in the pcDNA3 vector (INVITROGEN) digested with Bgl II-KpnI. (This digestion removes the CMV-promoter from pcDNA3.) The resulting new vector was digested with Kpn I-Hind III and a promoter containing a ‘5×NF-κB binding sites—TATA box’ sequence was inserted upstream of the luciferase gene. […]
# NF-κB [2] = experiment: Luciferase activity of resistant HeLa NF-κB-LUC cell pool after stimulation; format: cell-based, human; conditions: quadruplicate samples, control 1369±149
# Description: The fragment Kpn I-BamH I from the pGL3 basic vector containing the luciferase gene (PROMEGA) was inserted in the pcDNA3 vector (INVITROGEN) digested with Bgl II-KpnI. (This digestion removes the CMV-promoter from pcDNA3.) The resulting new vector was digested with Kpn I-Hind III and a promoter containing a ‘5×NF-κB binding sites—TATA box’ sequence was inserted upstream of the luciferase gene. This vector has been named STM.
# To obtain stable HeLa cell lines expressing the luciferase gene under the control of NF-κB, HeLa cells were transfected (using lipofectamine plus GIBCO) with the STM-Pvu I linearized vector, and selected for 20 days with G418 (800 μg/ml). After selection, the resistant HeLa cell pool was controlled (in quadruplicate samples) for luciferase activity after stimulation with TNFα, IL-1 and TPA. The respective luciferase activities were: • 1) Control: 1369±149 • 2) TNFα: 6111±1231 • 3) IL-1: 11814±1151 • 4) TPA: 7181±444 Clones were selected.
# uninfected cells = experiment: Toxicity to uninfected cells compared with the anti-viral concentration; format: cell-based
# HSF1 = conditions: cited from earlier work
# NF-κB [3] = conditions: chemical or physiological inducers; 'at the same concentration'; cited from earlier work
compound,measurement,setting,value
"COC(=O)[C@H](CS[C@H]1CC(=O)CC[C@@H]1O[Si](C)(C)C(C)(C)C)NC(=O)OC(C)(C)C [CTM-68, 2-tert-Butoxycarbonylamino-3-[2-(tert-butyl-dimethyl-silanyloxy)-5-oxo-cyclohexylsulfanyl]-propionic acid methyl ester]",CC50 at 8 h,in vitro,> 800 µM
same,IC50,Sendai virus,1 µM
same,LD50 (50% lethal dose/concentration),37RC cells,9.8 µM
same,HSF; AC200 (concentration at which the tested compound doubled the HSF activity),HSF,98 µM
same,IC50,NF-κB [1],17 µM
TNFα,luciferase activity after stimulation,NF-κB [2],6111±1231
"CC(C)(C)[Si](C)(C)OC1CC=CC(=O)C1 (stereo not drawn) [Compound B, 5-tert-butyldimethylsilyloxy-cyclohex-2-en-1-one]",IC50,Sendai virus,0.4 µM
same,concentration of anti-viral effect relative to the concentration toxic to uninfected cells,uninfected cells,below that at which they were toxic to uninfected cells
"COC(=O)C(CSC1CC(=O)CC(O[Si](C)(C)C(C)(C)C)C1)NC(=O)OC(C)(C)C (stereo not drawn) [CTM-78, 2-tert-Butoxycarbonylamino-3-[3-(tert-butyl-dimethyl-silanyloxy)-5-oxo-cyclohexylsulfanyl]-propionic acid methyl ester]",CC50 at 8 h,in vitro,> 800 µM
same,IC50,Sendai virus,3 µM
same,LD50 (50% lethal dose/concentration),37RC cells,18.6 µM
same,HSF; AC200 (concentration at which the tested compound doubled the HSF activity),HSF,45 µM
same,IC50,NF-κB [1],22 µM
"CCCCCCCCCCCCCC(=O)O[C@@H]1[C@@H](C)[C@@]2(O)[C@@H](C=C(CO)C[C@]3(O)C(=O)C(C)=C[C@@H]23)[C@@H]2C(C)(C)[C@]12OC(C)=O [TPA, 12-O-tetradecanoylphorbol-13-acetate]",luciferase activity after stimulation,NF-κB [2],7181±444
"CC(C)(C)[Si](C)(C)OC1C=CC(=O)CC1 (stereo not drawn) [Compound A, 4-tert-butyldimethylsilyloxy-cyclohex-2-en-1-one]",IC50,Sendai virus,1 µM
same,concentration of anti-viral effect relative to the concentration toxic to uninfected cells,uninfected cells,below that at which they were toxic to uninfected cells
O=C1C=CCC1 [cyclopent-2-en-1-one],concentration shown to activate HSF1 and trigger synthesis of HSP70,HSF1,125 to 500 µM
same,concentration shown to block NF-κB activation,NF-κB [3],125 to 500 µM

# — patent publication US20050124696A1, “Pharmaceutical compositions” (priority 2001, published 2005)
